In general, Ki refers to a measure of affinity in units of concentration, obtained from inhibition or displacement.

This note sets out measurements from patent US20040121962A1, “Prodrugs of excitatory amino acids” (priority 2001, published 2004).

In one assay the target is T1, human mGluR2 (Homo sapiens, UniProt Q14416).
T1 construct: expressed in transfected cells
Kind of assay: Displacement of [3H]LY341495 binding to cell membranes, human mGluR2. The conditions noted are these: read-out: Displacement of 3H-LY341495 binding (Ki, nM) (mean ± S.E., N = 3).

The target in another assay is T2, human mGluR3 (Homo sapiens, UniProt Q14832).
T2 construct: expressed in transfected cells
T2 sequence (Q14832 23-879): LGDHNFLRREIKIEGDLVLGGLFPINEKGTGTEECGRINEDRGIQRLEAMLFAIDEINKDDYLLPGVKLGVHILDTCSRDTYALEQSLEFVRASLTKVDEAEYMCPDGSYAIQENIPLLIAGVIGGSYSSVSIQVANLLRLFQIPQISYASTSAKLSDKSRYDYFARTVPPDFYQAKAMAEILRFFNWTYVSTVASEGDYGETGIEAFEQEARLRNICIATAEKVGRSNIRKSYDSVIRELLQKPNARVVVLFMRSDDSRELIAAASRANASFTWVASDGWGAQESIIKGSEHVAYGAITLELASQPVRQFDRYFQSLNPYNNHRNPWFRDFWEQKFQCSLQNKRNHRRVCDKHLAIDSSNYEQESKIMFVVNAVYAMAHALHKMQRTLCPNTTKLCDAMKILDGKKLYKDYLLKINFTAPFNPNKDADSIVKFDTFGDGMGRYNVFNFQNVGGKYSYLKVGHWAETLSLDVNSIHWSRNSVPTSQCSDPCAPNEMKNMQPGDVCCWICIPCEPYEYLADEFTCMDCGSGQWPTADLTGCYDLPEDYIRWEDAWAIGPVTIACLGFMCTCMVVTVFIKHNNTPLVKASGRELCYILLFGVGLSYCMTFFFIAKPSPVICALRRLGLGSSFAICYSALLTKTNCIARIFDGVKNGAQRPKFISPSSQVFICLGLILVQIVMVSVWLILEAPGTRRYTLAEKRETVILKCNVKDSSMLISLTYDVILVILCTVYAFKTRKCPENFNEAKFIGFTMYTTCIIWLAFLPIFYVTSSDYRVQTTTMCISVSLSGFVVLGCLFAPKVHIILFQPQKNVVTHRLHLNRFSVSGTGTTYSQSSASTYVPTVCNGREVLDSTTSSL
Briefly: Displacement of [3H]LY341495 binding to cell membranes, human mGluR3. The conditions noted are these: read-out: Displacement of 3H-LY341495 binding (Ki, nM) (mean ± S.E., N = 3).

Assay [1] deals with fear-potentiated startle (mGlu2/3 receptor linked). Kind of assay: Rat fear-potentiated startle anxiety model. The following applies: for MED (1 hour pre-treatement): fed rats, oral, 1 hour pre-treatment. Type of assay: in vivo. From the text: This model was specifically chosen, as it is highly sensitive to mGlu2/3 agonists such as LY354740 and compounds of the present invention. (See, Helton […]., Monn […]., and Kallman M. J., Anxiolytic and side-effect profile of LY354740: A potent, high selective, orally active agonist for group II metabotropic glutamate receptors, J. Pharmacol. Exp. Ther. 284: 651-660 (1998)). To verify that the actions of a compound of formula I in this model were mGlu2/3 receptor mediated, as has been shown previously for LY354740 (See, […]., Ornstein P. L., Monn J. A., and Schoepp D. D., Actions of mGlu receptor agonists on fear-conditioning versus fear-expression in rats, Neuropharmacology, 38:[…] (#144) (1999)), the ability of LY341495 (an mGlu2/3 receptor antagonist) (See, Kingston A. E., Ornstein P. L., Wright R. A., Johnson […]., Burnett […]., Wu S., and Schoepp D. […] As a positive control in each experiment, diazepam (0.6 mg/kg i.p.) was used. All experiments were performed in fed rats. In the fear potentiated startle model, animals are exposed to a neutral stimulus such as light (conditioned stimulus) with an aversive stimulus such as a shock (unconditioned stimulus). Following conditioning, when the animals are presented with a loud acoustic stimulus, larger startle responses are elicited when the startle stimulus is preceded by light. Male Long Evans rats (180-400 g) or male NIH Swiss mice (18-35 g) were obtained from Harlan Sprague-Dawley, Cumberland, Ind., USA and acclimated at least 3 days before testing. Animals were housed at 23±2° C. (relative humidity 30% to 70%) and given Purina Certified Rodent Chow and water ad libitum. The photoperiod was 12 hours of light and 12 hours of dark, with dark onset at approximately 1800 hours. Test compounds were dissolved in a vehicle of purified water and neutralized with 5 N NaOH to a pH of 7-8 when applicable. Diazepam (Sigma Chemical Company, St. […] Control animals received the respective vehicle. […]

For assay [2], the target named is mGlu2/3 receptors in rat forebrain membranes. The following applies: read-out: Displacement of 3H-LY341495 binding (Ki, nM) (mean ± S.E., N = 3).
Description: (§1) To study the ability to affect receptor binding of compounds of the present invention in comparison to LY354740, displacement of a high affinity mGluR2 antagonist radioligand [^3H]LY341495 to cell membranes from human mGluR2, human mGluR3, and native rat brain tissues was determined.

T1 sequence (Q14416 19-872): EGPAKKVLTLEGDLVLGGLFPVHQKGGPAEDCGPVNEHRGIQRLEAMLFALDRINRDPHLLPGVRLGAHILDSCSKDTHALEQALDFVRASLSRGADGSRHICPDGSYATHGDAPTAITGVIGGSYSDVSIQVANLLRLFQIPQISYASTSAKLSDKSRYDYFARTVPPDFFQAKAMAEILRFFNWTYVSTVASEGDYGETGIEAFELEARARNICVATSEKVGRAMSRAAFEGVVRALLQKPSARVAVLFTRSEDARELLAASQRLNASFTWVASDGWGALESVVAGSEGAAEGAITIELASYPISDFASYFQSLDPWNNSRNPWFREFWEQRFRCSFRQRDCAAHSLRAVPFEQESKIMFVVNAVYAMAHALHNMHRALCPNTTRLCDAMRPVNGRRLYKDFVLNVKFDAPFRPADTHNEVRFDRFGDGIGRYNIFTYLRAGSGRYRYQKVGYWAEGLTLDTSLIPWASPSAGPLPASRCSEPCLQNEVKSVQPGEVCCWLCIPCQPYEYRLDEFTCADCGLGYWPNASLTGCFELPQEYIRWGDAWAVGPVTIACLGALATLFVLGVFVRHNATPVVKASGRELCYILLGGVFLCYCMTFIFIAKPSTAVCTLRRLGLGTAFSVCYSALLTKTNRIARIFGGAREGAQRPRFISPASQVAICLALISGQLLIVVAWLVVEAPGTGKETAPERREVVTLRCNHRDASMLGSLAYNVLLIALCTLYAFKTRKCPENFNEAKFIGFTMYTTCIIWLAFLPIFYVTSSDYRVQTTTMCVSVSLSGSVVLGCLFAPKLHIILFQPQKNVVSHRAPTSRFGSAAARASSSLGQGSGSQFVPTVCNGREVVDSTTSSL
Description for human mGluR2: as §1
Description for human mGluR3: as §1

On to `C[C@H](N)C(=O)N[C@@]1(C(=O)O)CC[C@H]2[C@H](C(=O)O)[C@H]21` [Formula I, (1S,2S,5R,6S)-2-[(2′S)-(2′-Amino)-propionyl]amino-bicyclo[3.1.0]hexane-2,6-dicarboxylic acid], for which the Ki at human mGluR2 and on human mGluR3 was > 10000 nM each time. In addition, in assay [1], the “MED (1 hour pre-treatement)” value is on record as 0.01 mg/kg p.o.
For the compound `NC1(C(=O)O)CCC2C(C(=O)O)C21` (single isomer, unassigned; (+)) [LY354740, (+)-2-aminobicyclo[3.1.0]hexane-2,6-dicarboxylic acid], the inhibition constant Ki came to 84.7 ± 11.1 nM at human mGluR2, 126 ± 4.8 nM at human mGluR3 and 80 ± 7.3 nM in assay [2]. Also, the “MED (1 hour pre-treatement)” value in assay [1] stood at 3.0 mg/kg p.o.
On to `C[C@H](N)C(=O)N[C@@]1(C(=O)O)CC[C@H]2[C@H](C(=O)O)[C@H]21.Cl` [Example 3, (1S,2S,5R,6S)-2-[(2′S)-(2′-Amino)-propionyl]amino-bicyclo[3.1.0]hexane-2,6-dicarboxylic acid hydrochloride], for which, in assay [1] (preclinical studies), the “oral potency in the treatment of anxiety” value is given as “greatly enhanced oral potency”.
